Reference: patent US5430154A, “2-(4-piperidinyl)-1H-pyrido[4,3-b]-indol-1-ones and related compounds” (Hoechst-Roussel Pharmaceuticals Inc., priority 1993, dated 1995)
Where two headings read alike, the source gives them in different places.

How the values were obtained:
[1] = system: apomorphine-induced climbing; assay: climbing mice assay (antagonism of apomorphine-induced climbing; antipsychotic activity); type: in vivo, CK-1 male mice; details: Mus musculus, ip, read-out: Antipsychotic Activity ED50
Experimental: The subject CK-1 male mice (23-27 grams) are group-housed under standard laboratory conditions. The mice are individually placed in wire mesh stick cages (4"×4" by 10") and are allowed one hour for adaptation and exploration of the new environment. […] For evaluation of climbing, 3 readings are taken at 10, 20 and 30 minutes after apomorphine administration according to the following scale: Mice consistently climbing before the injection of apormorphine are discarded. With full-developed apomorphine climbing, the animals are hanging onto the cage wails, rather motionless, over longer periods of time. By contrast, climbs due to mere motor stimulation usually only last a few seconds. The climbing scores are individually totaled (maximal score; 6 per mouse over 3 readings) and the total score of the control group (vehicle intraperitioneally-apomorphine subcutaneously) is set to 100%.

[2] = system: apomorphine-induced stereotypy; assay: antagonism of apomorphine-induced stereotypy; type: in vivo, male Wistar rats; details: apomorphine 1.5 mg/kg s.c., rats
Experimental: Antagonism of apomorphine-induced stereotypy is a property of many antipsychotics. […] Antagonism of apomorphine-induced stereotypy of the present 2-(4-piperidinyl)-1H-pyrido[4,3-b]indol-1-ones is determined by methods similar to those described by N. E. Anden, et al., J. Pharma.
Drugs are prepared using distilled water and, if insoluble, a suitable surfactant is added. The route of administration may be varied and the dosage volume is 10 ml/kg. For a primary screen, a group size of six is used. Drug is administered one hour prior to scoring and the animals are placed in individual clear plastic cages (24×14×13 cm). The control group receives vehicle. Apomorphine hydrochloride solution is prepared at a concentration of 1.5 mg/10 ml in a 0.03% ascorbic acid stock solution (30 mg of ascorbic acid in 100 ml of 1% saline) to increase the stability of the apomorphine hydrochloride while in solution. […] Fifty minutes after drug dosing, stereotypic behavior is noted. Stereotypic activity is defined as sniffing, licking or chewing behavior that occurs in a repetitive manner and is rated as follows: Constant sniffing, licking or chewing without interruption; the animal is considered protected if this behavior is interrupted.
The percent effectiveness of a drug is determined by the number of animals protected in each group.
A dose-response is run in the same manner as a primary screen except that a group size of 10 is used and the animals are dosed in a randomized manner. One group receives vehicle. ED50 for stereotypy are calculated by means of probit analysis.

[3] = 30 min before apomorphine 1.5 mg/kg s.c., mice, linear regression

Row | SMILES | ED50 [1] [mg/kg] | % Inhibition of Apomorphine-Induced Stereotypy ([2]; dose 0.2 mg/kg ip) [%] | ED50 [1, 3] [mg/kg] | % Inhibition of Apomorphine-Induced Stereotypy ([2]; dose 38 mg/kg ip) [%] | % Inhibition of Apomorphine-Induced Stereotypy ([2]; dose 24 mg/kg ip) [%]
1 | O=C(CCCN1CCC(O)(c2ccc(Cl)cc2)CC1)c1ccc(F)cc1 [haloperidol] | 0.14 | 50 |  |  | 
2 | CSc1ccc2c(c1)N(CCC1CCCCN1C)c1ccccc1S2 (stereo not drawn) [thioridazine] |  |  | 3.6 | 50 | 
3 | Cl.Cn1c2c(c3ccccc31)C(=O)N(C1CCN(Cc3ccccc3)CC1)CC2 [5-Methyl-2-[1-(phenylmethyl)-4-piperidinyl]-2,3,4,5-tetrahydro-1H-pyrido[4,3-b]-indole-1-one hydrochloride] |  |  | 4.6 |  | 50
